Source: publication PMC9585585, “Discovery of Small-Molecule Allosteric Inhibitors of PfATC as Antimalarials” (Journal of the American Chemical Society, 2022)
Several values for one entry are separate records, joined by “and”; a condition that tells them apart may be missing. Identical values can stand only once. Like-named read-outs stand apart in the source and are kept apart here.

Legend:
normal lymphocytes = experiment: Human cell line experiments, AlamarBlue, normal lymphocytes; type: cell-based; conditions: for EC50: Hs normal lymphocytes, 72 hours, read-out: EC50 against normal lymphocytes; for cytotoxicity against cultured human lymphocytes: at 100 μM
Experimental: page 4: […] 418one in 50% (v/v) sulfuric acid) and one volume of 2,3-Butanedione monoxime (80 mM 2,3- 419Butanedione monoxime in 5% (v/v) acetic acid). After plates were sealed with transparent sealing 420tape to prevent evaporation and incubated overnight in the dark place at room temperature. After 421incubation, the plates were heated at 95 °C for 15 min in dark place, and kept for 30 min before 422measuring at 466 nm suing a Synergy H1 Hybrid Reader (BioTek). Analyses were performed using 423Microsoft Excel and Graph Pad Prism. 424HsATC activity assay. The enzymatic assay was performed as described herein above for 425enzymatic assay of PfATC with minor modifications. Briefly, the reaction was carried out at room 426temperature in a total volume of 150 μl of 10 mM L-aspartate and 5 mM carbamoyl phosphate 427saturated substrate solution in 50 mM Tris-Acetate buffer pH 8.3. hsATC was pre-incubated with 428inhibitor and L-Asp for 10 min at room temperature on a shaker. The reaction was initiated by 429adding CP and stopped after 5 min with […] color mix. Then the plate was covered by sealing 430tape and kept in dark place at room temperature and then heated to 95 °C for 15min in dark and kept 431the plate in the dark for another 30 min before measuring the absorbance at 466 nm suing a Synergy 432H1 Hybrid Reader (BioTek). Analyses were performed using Microsoft Excel and Graph Pad 433Prism. 434Human cell line experiments. The cell lines A375 (melanoma), H1299 (lungca), MCF7 435(breastca), REC-1 (mantel cell lymphoma, SUDHL2 (diffuse large B-cell lymphoma) and normal 436lymphocytes (obtained from tonsils) were cultured in RPMI 1640 (Lonza BioWhittaker, 437Walkersville, MD, USA) with 10% fetal bovine serum (FBS; HyClone Thermo Scientific, 438Waltham, MA, USA). Cells were plated in 96-wells plates and incubated with increasing 439concentrations of compounds for 72 hours as indicated. All experiments were performed in page 5: 440triplicate. AlamarBlue (Thermo Fisher Scientific, Waltham, MA USA) was added eight hours prior 441to read-out (extinction 560nm, emission 590nm). […] A freshly prepared protein 443solution at a concentration of 10 mg ml -1 and immediately used in crystallization trials. The 444screening for crystallization conditions for PfATC was performed using a high-through 445crystallization robot (Gryphon, Art Robbins) against commercially available sparse-matrix 446screening kits (JCSG plus and PACT premier; Molecular Dimensions Ltd.). All experiments were 447performed at 293 K using the sitting drop vapor diffusion technique in 96 well MRC2 plates 448(Molecular Dimensions Ltd.). Equal volumes (0.2 μL) of protein solution and crystallization 449reagent were equilibrated against 50 μL of reservoir solution. Medium size single crystals appeared 450overnight in various conditions containing PEG3350/4000. The apo-crystals were soaked for 10 […] 452the solution plus 20% glycerol, flash-cooled and stored in liquid nitrogen. The flashed cooled 453crystals was shipped to […], Deutsches Elektronen-Synchrotron DESY Beamline P11. […] The purified PfATC […] 457stocks in 100% DMSO) at a molar ratio of 1:5. The mixture was incubated at 20 °C for 40 minutes, 458then centrifugation was performed to remove the precipitate. The supernatant was immediately 459used in crystallization trials. The crystallization reagent were the same as apo crystallization […] The crystals were flash- 461cooled and stored in liquid nitrogen, and was shipped to […], Deutsches Elektronen- 462Synchrotron DESY Beamline P11.

HsATC = target: T1, HsATC (Homo sapiens, UniProt P27708); experiment: HsATC activity assay; type: biochemical; conditions: in vitro activity assay
T1 construct: ATCase domain of CAD; made in house; host or cells: E. coli BL21 star
T1 sequence (P27708 1918-2225 limits assumed): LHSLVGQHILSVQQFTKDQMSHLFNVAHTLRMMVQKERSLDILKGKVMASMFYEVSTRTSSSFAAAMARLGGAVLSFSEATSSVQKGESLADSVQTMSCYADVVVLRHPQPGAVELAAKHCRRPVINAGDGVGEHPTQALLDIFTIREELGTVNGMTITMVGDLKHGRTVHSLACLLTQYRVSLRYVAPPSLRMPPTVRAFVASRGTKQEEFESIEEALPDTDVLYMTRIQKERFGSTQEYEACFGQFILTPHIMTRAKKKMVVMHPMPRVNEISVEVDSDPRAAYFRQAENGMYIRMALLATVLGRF
Experimental: 417100μL of stop mix (two volumes of Antipyrine (26.5 mM 2,3-Dimethyl-1-phenyl-3-pyrazolin-5-
418one in 50% (v/v) sulfuric acid) and one volume of 2,3-Butanedione monoxime (80 mM 2,3-
419Butanedione monoxime in 5% (v/v) acetic acid). After plates were sealed with transparent sealing
420tape to prevent evaporation and incubated overnight in the dark place at room temperature. After
421incubation, the plates were heated at 95 °C for 15 min in dark place, and kept for 30 min before
422measuring at 466 nm suing a Synergy H1 Hybrid Reader (BioTek). Analyses were performed using
423Microsoft Excel and Graph Pad Prism.
424HsATC activity assay. The enzymatic assay was performed as described herein above for
425enzymatic assay of PfATC with minor modifications. Briefly, the reaction was carried out at room
426temperature in a total volume of 150 μl of 10 mM L-aspartate and 5 mM carbamoyl phosphate
427saturated substrate solution in 50 mM Tris-Acetate buffer pH 8.3. hsATC was pre-incubated with
428inhibitor and L-Asp for 10 min at room temperature on a shaker. The reaction was initiated by
429adding CP and stopped after 5 min with […] color mix. Then the plate was covered by sealing
430tape and kept in dark place at room temperature and then heated to 95 °C for 15min in dark and kept
431the plate in the dark for another 30 min before measuring the absorbance at 466 nm suing a Synergy
432H1 Hybrid Reader (BioTek). […]

[1] = 10 mM L-aspartate, 5 mM carbamoyl phosphate, read-out: HsATC IC50

IC50 (HsATC; [1]) [µM] | IC50 (HsATC; n = 3, read-out: IC50 against HsATC) | Compound | EC50 (normal lymphocytes; Homo sapiens, Lymphocyte) [µM] | cytotoxicity against cultured human lymphocytes (normal lymphocytes) | EC50 (normal lymphocytes) [µM]
2.84 | 2.8 µM and 2.84 µM | CC(C)(C)OC(=O)Nc1sc(-c2ccccc2)cc1C(=O)NCCc1ccccc1 [BDA-04] | ~1000 | no cytotoxicity | –
0.116 | – | CC(C)(C)OC(=O)Nc1sc(-c2ccccc2)cc1C(=O)NCCc1ccc(O)cc1 [BDA-11] | – | – | 757
0.316 | – | COc1cccc(CCNC(=O)c2cc(-c3ccccc3)sc2NC(=O)OC(C)(C)C)c1 [BDA-24] | – | – | 911

Compound | IC50 (HsATC; [1]) [µM] | IC50 (HsATC; n = 3, read-out: IC50 against HsATC) | EC50 (normal lymphocytes; Homo sapiens, Lymphocyte) [µM] | cytotoxicity against cultured human lymphocytes (normal lymphocytes) | EC50 (normal lymphocytes) [µM]
CC(C)(C)OC(=O)Nc1sc(-c2ccccc2)cc1C(=O)NCCO [BDA-14] | 0.137 | – | – | no cytotoxicity | > 1000
